From patent US8791266B2, “Thyroid hormone β receptor agonist” (Mitsubishi Tanabe Pharma Corporation, priority 2009, dated 2014) come the findings set out here.

The target in experiment [1] is T1, Human Thyroid Hormone Receptor α1 (TRα1) (Homo sapiens, UniProt P10827).
T1 construct: expressed in transfected cells; host or cells: 293T cells
T1 sequence (P10827 1-410 isoform P10827-2): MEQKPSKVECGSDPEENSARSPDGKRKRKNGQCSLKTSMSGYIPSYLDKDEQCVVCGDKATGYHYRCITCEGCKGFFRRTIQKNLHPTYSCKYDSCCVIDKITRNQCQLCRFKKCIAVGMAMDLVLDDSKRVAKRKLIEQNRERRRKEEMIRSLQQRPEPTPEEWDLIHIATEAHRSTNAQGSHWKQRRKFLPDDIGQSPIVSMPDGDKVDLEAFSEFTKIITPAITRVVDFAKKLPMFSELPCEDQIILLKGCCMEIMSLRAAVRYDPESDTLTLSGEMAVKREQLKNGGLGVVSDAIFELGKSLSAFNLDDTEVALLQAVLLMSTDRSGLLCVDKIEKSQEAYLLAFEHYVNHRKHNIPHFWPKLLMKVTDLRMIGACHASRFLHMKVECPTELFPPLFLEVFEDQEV
The experiment is described as follows: Transcription activation test of human thyroid hormone receptor α1 (luciferase reporter in 293T cells). Type of experiment: cell-based. The following applies: ratio TRα/TRβ of the transcription activation EC50 values. An excerpt: (§1) Transcription Activation Test of Human Thyroid Hormone Receptors α1 (TRα1) and β1 (TRβ1)
(§2) pcDNA3.1 vector (manufactured by Invitrogen) that expresses TRα1 or β1 cloned from human liver-derived cells, and firefly luciferase expression vector pDR4-LuC (manufactured by Stratagene) having a thyroid hormone response sequence to be a reporter were transfected into 293T cells cultured in Dulbecco's modified Eagle medium (DMEM) containing 10% of activated carbon/dextran-treated fetal bovine serum (FBS) by using Lipofectamine2000 (manufactured by Invitrogen). After 16 hr, the cells were plated again in a 96 well plate, and the medium was exchanged with DMEM containing 0.1% activated carbon/dextran-treated FBS. After 3 more hr, a compound diluted with dimethyl sulfoxide solution was added, and the luciferase activity after 24 hr was measured.
(§3) As a positive control, 3,3′,5-triiodo-L-thyronine (T3), which is a biological ligand, was used. The transcription activation action of the compound on TRα1 and TRβ1 was shown by each EC50 value and the maximum luciferase activity value relative to the maximum luciferase activity value of T3 as 100.
In general terms: Reporter assays use an easily measured gene product as a stand-in for the process of interest.

The target of experiment [2] is T2, Human Thyroid Hormone Receptor β1 (TRβ1) (Homo sapiens, UniProt P10828).
T2 construct: expressed in transfected cells; host or cells: 293T cells
T2 sequence (P10828 1-461): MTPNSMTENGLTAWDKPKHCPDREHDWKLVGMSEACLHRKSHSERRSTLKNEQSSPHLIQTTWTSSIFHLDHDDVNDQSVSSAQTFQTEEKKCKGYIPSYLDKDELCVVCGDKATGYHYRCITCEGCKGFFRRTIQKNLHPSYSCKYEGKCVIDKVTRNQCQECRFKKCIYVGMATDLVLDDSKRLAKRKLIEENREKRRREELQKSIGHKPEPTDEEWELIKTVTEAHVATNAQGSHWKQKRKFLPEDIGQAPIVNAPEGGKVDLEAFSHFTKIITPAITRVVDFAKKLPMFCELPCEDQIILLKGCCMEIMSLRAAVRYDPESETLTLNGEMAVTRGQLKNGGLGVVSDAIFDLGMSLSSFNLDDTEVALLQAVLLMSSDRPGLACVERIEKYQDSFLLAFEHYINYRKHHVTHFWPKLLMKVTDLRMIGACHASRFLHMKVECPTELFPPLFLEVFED
The experiment is described as follows: Transcription activation test of human thyroid hormone receptor β1 (luciferase reporter in 293T cells). The following applies: EC50 of transcription activation on TRβ1, 293T cells, luciferase activity after 24 hr; read-out: TRβ. Type of experiment: cell-based.
Source text: as §1, §2, §3

With `Cc1cc(OCc2noc(=O)[nH]2)cc(C)c1Cc1ccc(O)c(-c2ccc3ccccc3c2)n1` [Example 29, 3-[(4-{[5-hydroxy-6-(2-naphthyl)pyridin-2-yl]methyl}-3,5-dimethylphenoxy)methyl]-1,2,4-oxadiazol-5(4H)-one], the “selectivity (TRα/TRβ)” value in experiment [1] is listed as “A (5<(TRα/TRβ))”. Also, in experiment [2], the EC50 amounted to 2 nM.

In the case of `O=C(O)COc1cc(Br)c(Cc2ccc(O)c(-c3ccccc3)n2)c(Br)c1F` [Example 256, [3,5-dibromo-2-fluoro-4-(5-hydroxy-6-phenyl-pyridin-2-ylmethyl)-phenoxy]acetic acid], the “selectivity (TRα/TRβ)” value in experiment [1] is recorded as “A (5<(TRα/TRβ))”. Also, the EC50 in experiment [2] is 3 nM.

Consider `Cc1cc(OCc2noc(=O)[nH]2)c(F)c(C)c1Cc1ccc(O)c(-c2cccc(N3CCCC3)c2)n1` [Example 206, 3-[(2-fluoro-4-{[5-hydroxy-6-(3-pyrrolidin-1-ylphenyl)pyridin-2-yl]methyl}-3,5-dimethylphenoxy)methyl]-1,2,4-oxadiazol-5(4H)-one], for which, in experiment [1], the “selectivity (TRα/TRβ)” value is listed as “A (5<(TRα/TRβ))”. In experiment [2], the EC50 stood at 3 nM.

Regarding `Cc1cc(/C=C/C(=O)O)c(C)c(C)c1Cc1ccc(O)c(C2CCCCC2)n1` [Example 25, (2E)-3-{4-[(6-cyclohexyl-5-hydroxypyridin-2-yl)methyl]-2,3,5-trimethylphenyl}acrylic acid], in experiment [1], the “selectivity (TRα/TRβ)” value is given as “C (2>(TRα/TRβ))”. Also, the EC50 in experiment [2] is 1 nM.

In the case of `Cc1cc(OCC(=O)O)c2c(c1Cc1ccc(O)c(C3CCCCC3)n1)CCC2` [Example 152, ({7-[(6-cyclohexyl-5-hydroxypyridin-2-yl)methyl]-6-methyl-2,3-dihydro-1H-inden-4-yl}oxy)acetic acid], the “selectivity (TRα/TRβ)” value in experiment [1] is “B (2<(TRα/TRβ)<5)”. The EC50 in experiment [2] came to 5 nM.

Consider `Cc1cc(OCc2noc(=O)[nH]2)c2c(c1Cc1ccc(O)c(C3CCCCC3)n1)CCO2` [Example 117, 3-[({4-[(6-cyclohexyl-5-hydroxypyridin-2-yl)methyl]-5-methyl-2,3-dihydro-1-benzofuran-7-yl}oxy)methyl]-1,2,4-oxadiazol-5(4H)-one], for which, in experiment [1], the “selectivity (TRα/TRβ)” value is “B (2<(TRα/TRβ)<5)”. Further, the EC50 in experiment [2] turned out to be 2 nM.

For `CCc1cc(OCC(=O)O)c(C)c(C)c1Cc1ccc(O)c(-c2cccc(F)c2)n1` [Example 269, (5-ethyl-4-{[6-(3-fluorophenyl)-5-hydroxypyridin-2-yl]methyl}-2,3-dimethylphenoxy)acetic acid], in experiment [1], the “selectivity (TRα/TRβ)” value is listed as “A (5<(TRα/TRβ))”. In addition, in experiment [2], the EC50 stood at 0.7 nM.

Turning to `Cc1cc(OCC(=O)O)c(C)c(C)c1Cc1ccc(O)c(-c2cccc(Cl)c2)n1` [Example 173, (4-{[6-(3-chlorophenyl)-5-hydroxypyridin-2-yl]methyl}-2,3,5-trimethylphenoxy)acetic acid], the “selectivity (TRα/TRβ)” value in experiment [1] was “A (5<(TRα/TRβ))”. In experiment [2], the EC50 amounted to 0.4 nM.

As to `Cc1cc(OCC(=O)O)cc(C)c1Cc1ccc(O)c(-c2ccc3ccccc3c2)n1` [Example 3, (4-{[5-hydroxy-6-(2-naphthyl)pyridin-2-yl]methyl}-3,5-dimethylphenoxy)acetic acid], in experiment [1], the “selectivity (TRα/TRβ)” value was “A (5<(TRα/TRβ))”. Besides, the EC50 in experiment [2] was determined as 20 nM.

As to `Cc1cc(OCc2noc(=O)[nH]2)c(F)c(C)c1Cc1ccc(O)c(C(C)C)n1` [Example 37, 3-({2-fluoro^-4-[(5-hydroxy-6-isopropylpyridin-2-yl)methyl]-3,5-dimethylphenoxy}methyl)-1,2,4-oxadiazol-5(4H)-one], the “selectivity (TRα/TRβ)” value in experiment [1] is “B (2<(TRα/TRβ)<5)”. Further, the EC50 in experiment [2] came out at 0.1 nM.

Consider `Cc1cc(OCc2noc(=O)[nH]2)cc(C)c1Cc1ccc(O)c(-c2ccc3c(c2)CCCC3)n1` [Example 30, 3-[(4-{[5-hydroxy-6-(5,6,7,8-tetrahydronaphthalen-2-yl)pyridin-2-yl]methyl}-3,5-dimethylphenoxy)methyl]-1,2,4-oxadiazol-5(4H)-one], for which the “selectivity (TRα/TRβ)” value in experiment [1] is “A (5<(TRα/TRβ))”. In experiment [2], the EC50 was found to be 2 nM.

In the case of `Cc1cc(OCC(=O)O)c(C)c(C)c1Cc1ccc(O)c(C2CCCCO2)n1` (stereo not drawn) [Example 8, (4-{[5-hydroxy-6-(tetrahydro-2H-pyran-2-yl)pyridin-2-yl]methyl}-2,3,5-trimethylphenoxy)acetic acid], the “selectivity (TRα/TRβ)” value in experiment [1] is reported as “A (5<(TRα/TRβ))”. In experiment [2], the EC50 amounted to 50 nM.

With `CCCOc1cccc(-c2nc(Cc3c(C)cc(OCc4noc(=O)[nH]4)c(F)c3C)ccc2O)c1` [Example 236, 3-{2-fluoro-4-[5-hydroxy-6-(3-propoxy-phenyl)-pyridin-2-ylmethyl]-3,5-dimethyl-phenoxymethyl}-1,2,4-oxadiazol-5(4H)-one], the “selectivity (TRα/TRβ)” value in experiment [1] is recorded as “A (5<(TRα/TRβ))”. Further, the EC50 in experiment [2] was 3 nM.

Turning to `Cc1cc(OCC(=O)O)c(C)c(C)c1Cc1ccc(O)c(C2CCCO2)n1` (stereo not drawn) [Example 6, (4-{[5-hydroxy-6-(tetrahydrofuran-2-yl)pyridin-2-yl]methyl}-2,3,5-trimethylphenoxy)acetic acid], the “selectivity (TRα/TRβ)” value in experiment [1] was “B (2<(TRα/TRβ)<5)”. The EC50 in experiment [2] came out at 50 nM.

Consider `Cc1cc(OCC(=O)O)c(C)c(C)c1Cc1cc(F)c(O)c(C2CCCCC2)n1` [Example 65, {4-[(6-cyclohexyl-4-fluoro-5-hydroxypyridin-2-yl)methyl]-2,3,5-trimethylphenoxy}acetic acid], for which the “selectivity (TRα/TRβ)” value in experiment [1] is listed as “A (5<(TRα/TRβ))”. Moreover, the EC50 in experiment [2] is 10 nM.

With `Cc1cc(NC(=O)CC(=O)O)cc(C)c1Cc1ccc(O)c(C2CCCCCC2)n1` [Example 52, 3-({4-[(6-cycloheptyl-5-hydroxypyridin-2-yl)methyl]-3,5-dimethylphenyl}amino)-3-oxopropanoic acid], in experiment [1], the “selectivity (TRα/TRβ)” value was “A (5<(TRα/TRβ))”. Moreover, in experiment [2], the EC50 worked out at 6 nM.

For `Cc1cc(NC(=O)CC(=O)O)cc(C)c1Cc1ccc(O)c(C(C)C)n1` [Example 21, 3-({4-[(5-hydroxy-6-isopropylpyridin-2-yl)methyl]-3,5-dimethylphenyl}amino)-3-oxopropanoic acid], the “selectivity (TRα/TRβ)” value in experiment [1] was “B (2<(TRα/TRβ)<5)”. Moreover, the EC50 in experiment [2] amounted to 30 nM.

For the molecule `Cc1cc(OCc2noc(=O)[nH]2)c(C)c(C)c1Cc1ccc(O)c(C(C)C)n1` [Example 31, 3-({4-[(5-hydroxy-6-isopropylpyridin-2-yl)methyl]-2,3,5-trimethylphenoxy}methyl)-1,2,4-oxadiazol-5(4H)-one], the “selectivity (TRα/TRβ)” value in experiment [1] is reported as “B (2<(TRα/TRβ)<5)”. In experiment [2], the EC50 was found to be 0.2 nM.

On to `COc1c(OCc2noc(=O)[nH]2)cc(C)c(Cc2ccc(O)c(C3CCCCC3)n2)c1C` [Example 107, 3-({4-[(6-cyclohexyl-5-hydroxypyridin-2-yl)methyl]-2-methoxy-3,5-dimethylphenoxy}methyl)-1,2,4-oxadiazol-5(4H)-one], for which, in experiment [1], the “selectivity (TRα/TRβ)” value is reported as “C (2>(TRα/TRβ))”. For the same molecule, the EC50 in experiment [2] came to 10 nM.

On to `Cc1cc(OC(C)C(=O)O)cc(C)c1Cc1ccc(O)c(C2CCCCC2)n1` (stereo not drawn) [Example 14, 2-{4-[(6-cyclohexyl-5-hydroxypyridin-2-yl)methyl]-3,5-dimethylphenoxy}propanoic acid], for which, in experiment [1], the “selectivity (TRα/TRβ)” value is listed as “B (2<(TRα/TRβ)<5)”. The EC50 in experiment [2] stood at 10 nM.

With `Cc1cc(CC(F)C(=O)O)c(C)c(C)c1Cc1ccc(O)c(C2CCCCC2)n1` (stereo not drawn) [Example 136, 3-{4-[(6-cyclohexyl-5-hydroxypyridin-2-yl)methyl]-2,3,5-trimethylphenyl}-2-fluoropropanoic acid], the “selectivity (TRα/TRβ)” value in experiment [1] is listed as “C (2>(TRα/TRβ))”. Besides, the EC50 in experiment [2] stood at 1 nM.
